We go through 1 compound from patent publication US11484512B2, “Nanoparticles formed of a polymer and terbinafine” (Blueberry Therapeutics Limited, priority 2017, dated 2022).

In brackets after ≈: the same amount, converted by molar mass. Where two headings read alike, the source gives them in different places. Some results are limits rather than exact numbers.

Data set [1] concerns T. mentagrophytes. Kind of data set: Trychophyton mentagrophytes anti-fungal paper disc lawn assay. It is filed as cell-based. Conditions: 5 days incubation. On the procedure: FIGS. 6A-6E are photographic images of yeast extract peptone dextrose (YEPD) agar plates with Trychophyton mentagrophytes after incubation for 4 days at 30° C. […] 40 μl of double distilled water or terbinafine solution of varying concentration was spotted onto each paper disc. The concentration of the terbinafine solutions used were: 0 μg/ml (control, FIG. 6A), 0.06 μg/ml (FIG. 6B), 0.6 μg/ml (FIG. 6C), 6.00 μg/ml (FIG. 6D) and 60.0 μg/ml (FIG. 6E); FIGS. 7A and 7B are photographic images of YEPD plates assessing the efficacy of BB2603 (terbinafine and PHMB nanoparticles) and terbinafine samples passing through healthy human nail against Trychophyton mentagrophytes A lawn of Trychophyton mentagrophytes was spread onto YEPD agar plates supplemented with 50 μg/ml chloramphenicol. The aqueous samples from the Franz cell collection chamber following 7 days treatment of healthy human nails with either 0.1 mg/ml terbinafine (FIG. 7A) or BB2603 (FIG. 7B) were spotted onto 10 mm paper discs. The discs were placed in the middle of the Trychophyton plates, which were then incubated at 30° C. for 5 days to allow the fungi to grow. […]

In data set [2] the test system is Trichophron mentagrophytes. Conditions: cited from earlier work.
For data set [3] the following is noted: cited from earlier work.
The subject of data set [4] is Trichophyron terestre. The following applies: 1 strain tested; cited from earlier work.
The subject of data set [5] is Trichophron verrucosum. Conditions: 17 strains tested; cited from earlier work.
For data set [6], the system named is Trichophyton interdigitale. The following applies: 11 strains tested; cited from earlier work.
Data set [7] concerns Trichophyton rubrum. Conditions: 72 strains tested; cited from earlier work.
Data set [8] concerns Microsporum canis. The following applies: 49 strains tested; cited from earlier work.
Data set [9] in a line: Franz cell nail penetration, single dose (constant exposure). It is filed as in vitro ADME, human. On the procedure:
Nail clippings were soaked in water overnight at 30° C. and dried briefly. A 3 mm diameter punch was used to take disc biopsies of the nail clippings. Each nail disc was added to a Franz cell and an upper chamber of the cell attached. 40 μl of the following formulations was added to the upper chambers: 0.3 mg/ml PHMB+0.1 mg/ml terbinafine; or 10 mg/ml terbinafine. Lower collection chambers of the Franz cells were filled with water (approximately 600 μl) and the hole in the base of the sample chamber also filled with ddH2O to prevent bubbles forming beneath the nail. The upper sample chamber was carefully placed into the collection chamber ensuring not to introduce any air bubbles. Excess liquid from the collection chamber was expelled at this point leaving a final volume of liquid in the lower chamber of 500 μl. […] The nail discs from the Franz cell were also analysed for the presence of terbinafine as follows: the remaining test sample was removed from the upper sample chamber and discarded and the sample chamber washed 5 times with 100 μl ddH2O, with each wash being discarded, in order to remove any residual test solution remaining in the sample chamber. […] After 7 days, samples from the underside of the nail (ethanol washes) were collected and analysed by LC-MS/MS. […] Levels of terbinafine were quantified against drug standards. […]

Data set [10] has as its system Trichophyton species. Conditions: 27 strains tested; cited from earlier work.
The subject of data set [11] is onychomycosis. Conditions: following 3-6 months of dosing, oral; cited from earlier work.
The subject of data set [12] is Epidermophyton floccosum. Conditions: 42 strains tested; cited from earlier work.
The test system of data set [13] is Microsporum species. Conditions: 25 strains tested; cited from earlier work.

Turning to `CN(C/C=C/C#CC(C)(C)C)Cc1cccc2ccccc12` [terbinafine], the MIC (in general, the smallest concentration in the dilution series that meets the test's criterion for growth inhibition) in data set [1] (Trichophyton mentagrophytes, 120 h, 30° C.) was 600 ng/mL (≈ 2060 nM). Further, the “zone of clearance with Franz cell aqueous sample passed through nail” value in data set [1] (collection chamber sample after 7 days nail treatment) was “no effect”. Moreover, the MIC range is 1 to 6 ng/mL in [2] (32 strains tested); 2 ng/mL (≈ 6.86 nM) in [4]; 1 to 6 ng/mL in data set [5]; 2 to 28 ng/mL in data set [6]; 1 to 38 ng/mL in data set [7]; 6 to 80 ng/mL in [8]. Moreover, the MIC range in data set [10] was not above 60 ng/mL; in data set [12], 1 to 47 ng/mL; in [13], 2 to 70 ng/mL. In [2] (liquid MIC assay), the “previously reported MIC” value was 6 ng/mL. For the same compound, the “concentration in nails following oral dosing” value was “about 0.25 μg/g” in data set [3] (after 3 weeks), 0.55 µg/g in [3] (after 18 months) and 0.1 µg/g in [3] (after 7 days treatment). In [9] (0.1 mg/ml, 30% (v/v) ethanol, 7 days, single dose, BB2603 value is median), the “concentration of terbinafine in ethanol washes of the underside of the nail” value is less than 0.1 ng/mL. Moreover, the “median concentration of drug in dissolved nails” value in data set [9] (after 7 days, FIGS. 4 and 5A-5B) is on record as “approximately 0.5 mg/g”. Moreover, the cure in [11] was more than 80%.
